Reference: BindingDB's records for doi:10.1016/s0960-894x(03)00664-4 (Eli Lilly, 2003)

Target: Acetyl-CoA carboxylase 1 (Rattus norvegicus, UniProt P11497)
Assay: Inhibitory concentration against rat heart ACC by the carboxylation of acetyl-CoA with [14C]-HCO3- to form [14C]-malonyl CoA; 18-40 uM

SMILES | IC50 [µM]
CCSC(C)CC1CC(=O)C(/C(CC)=N/OC/C=C/Cl)C(=O)C1 (stereo not given) [clethodim] | 40
CCC/C(=N\OCC)C1C(=O)CC(C2CCCSC2)CC1=O (stereo not given) [2-{1-[(E)-Ethoxyimino]-butyl}-3-hydroxy-5-(tetrahydro-thiopyran-3-yl)-cyclohex-2-enone] | 40
CC/C(=N\OC/C=C/Cl)C1C(=O)CC(C2CCOCC2)CC1=O (stereo not given) [2-{1-[(E)-(E)-3-Chloro-allyloxyimino]-propyl}-3-hydroxy-5-(tetrahydro-pyran-4-yl)-cyclohex-2-enone] | 40
CCC/C(=N\OCC)C1C(=O)CC(CC(C)SCC)CC1=O (stereo not given) [2-{1-[(E)-Ethoxyimino]-butyl}-5-(2-ethylsulfanyl-propyl)-3-hydroxy-cyclohex-2-enone] | 40
CCO/N=C(\CC)C1C(=O)CC(c2c(C)cc(C)cc2C)CC1=O (stereo not given) [2-{1-[(E)-Ethoxyimino]-propyl}-3-hydroxy-5-(2,4,6-trimethyl-phenyl)-cyclohex-2-enone] | 40
